We go through two molecules from publication PMC5358997, “Fixed-dose combination orally disintegrating tablets to treat cardiovascular disease: formulation, in vitro characterization and physiologically based pharmacokinetic modeling to assess bioavailability” (Drug Design, Development and Therapy, 2017).

Each structure is given as a SMILES string. Bounds are passed on as bounds.

Data set [1] is described as follows: Dissolution testing of ODTs in biorelevant media (USP 2 paddle), f1/f2 comparison. The class given is physicochemical. Conditions: for Similarity factor f2 / Difference factor f1: single (reference) vs FDC (test) dissolution profile; for Similarity factor f2: similar if above 50; for Difference factor f1: similar if below 15; for >85% dissolution ≤15 min: single and FDC formulations; for Results of f1 and f2 testing: similar if f1 below 15 and f2 above 50. Here is the method: API dissolution from ODTs in 900 mL biorelevant media was tested in both FaSSIF and FeSSIF at pH 6.5 and 5, respectively, and maintained at 37°C. An ERWEKA DT 600 USP 2 paddle apparatus (Heusenstamm, Germany) was used at a paddle speed of 50 rpm.[27] A total of 5 mL of sample was taken over 2 h, replacing with 5 mL fresh media to simulate sink conditions. API dissolution was measured using HPLC and corrected for percent dose dissolved.
Differences between dissolution profiles of APIs in single dose (reference) and combination (test) were assessed using f1 and f2 difference and similarity factor testing using the equations:[34] f1={[∑t=1n|Rt−Tt|]/[∑t=1nRt]}*100f2=50*log{[1+(1/n)∑t=1n(Rt−Tt)^2]^−0.5*100} where Rt and Tt are the percent drug-dissolved value at each time point for the reference and test product, respectively, and n is the number of time points.

Another data set is described as follows: in vitro. Conditions: human; for efflux ratio at 2 h: Caco-2, pH 7.4, Efflux ratio; for Papp A→B at 2 h: Caco-2, pH 7.4, Papp A–B; for Papp B→A at 2 h: Caco-2, pH 7.4, Papp B–A. (Passage across Caco-2 layers is used to estimate intestinal permeability.)
The test system of a further data set is LDL-C. The note with it: hypercholesterolemic patients; cited from earlier work.
The mark [2] stands for this setting: amlodipine (20 μg/mL) and atorvastatin (40 μg/mL) in combination, pH 7.4, n=3, mean ± SD.
[3] abbreviates: drug alone (amlodipine 20 μg/mL, atorvastatin 40 μg/mL), pH 7.4 both compartments, n=3, mean ± SD.

Procedure for in vitro: Media were changed every 2–3 days and transwells cultured at 37°C, 5% CO2 for 21 days, after which transport studies were performed. […] Samples of 100 μL were removed from the A side and 200 μL from the B side at time points over 2 h, replacing with fresh prewarmed media (37°C) to mimic sink conditions. […] Cultures were maintained at 37°C and 5% CO2 throughout the experiment.

As for `CCOC(=O)C1=C(COCCN)NC(C)=C(C(=O)OC)C1c1ccccc1Cl` (centres unmarked) [Amlodipine, Amlodipine besylate], the “Dissolution within 15 min” value in data set [1] (FaSSIF, both single and FDC ODT) is on record as “exceeded 85%”. In addition, in data set [1] (FaSSIF), the “Similarity factor f2” value stood at 70.80; the “Difference factor f1” value is recorded as 5.08; the “>85% dissolution ≤15 min” value was “Yes”; the “Results of f1 and f2 testing” value is “Pass”. Moreover, the “Dissolution within 15 min” value in data set [1] (FeSSIF, either single or FDC ODT) was ≤ 85%. In data set [1] (FeSSIF), the “Similarity factor f2” value was 45.40; the “Difference factor f1” value came out at 15.92; the “>85% dissolution ≤15 min” value was “No”; the “Results of f1 and f2 testing” value is on record as “Fail”. Further, the efflux ratio at 2 h in the data set “in vitro” (amlodipine and atorvastatin in combination, pH 7.4) stood at 0.96. Moreover, the efflux ratio at 2 h in the data set “in vitro” (drug alone, pH 7.4 both compartments) came to 1.14. In the data set “in vitro” (setting [2]), the Papp A→B at 2 h is 5.4 ± 0.48 ×10⁻⁶ cm/s and the Papp B→A at 2 h was 5.18 ± 0.29 ×10⁻⁶ cm/s. In “in vitro” (setting [3]), this molecule gave a Papp A→B at 2 h of 8.34 ± 0.32 ×10⁻⁶ cm/s and an apparent permeability from basolateral to apical (Papp B→A) at 2 h of 9.51 ± 1.7 ×10⁻⁶ cm/s.
Consider `CC(C)c1c(C(=O)Nc2ccccc2)c(-c2ccccc2)c(-c2ccc(F)cc2)n1CC[C@@H](O)C[C@@H](O)CC(=O)O` [Atorvastatin, atorvastatin calcium], for which, in data set [1] (FaSSIF), the “Similarity factor f2” value amounted to 53.81; the “Difference factor f1” value came to 14.16; the “Results of f1 and f2 testing” value is “Pass”. In data set [1] (FeSSIF), the “Similarity factor f2” value was determined as 54.59; the “Difference factor f1” value is recorded as 13.24; the “Results of f1 and f2 testing” value is reported as “Pass”. In addition, the “Reduction of LDL-C” value with LDL-C is listed as 41%–61%.

What is called efflux ratio is a quotient of directional permeabilities that is used to spot active efflux. By Papp A→B is commonly meant how fast a substance crosses the layer from the apical side. A word on the Papp B→A: it is the apparent permeability from the basolateral to the apical side of a cell layer.
